Where two headings read alike, the source gives them in different places.
Columns and labels:
[1] = in vivo; conditions: both, Kunming, mouse, ip
Description: (§2) Five grades of dosages for each sample according to the results of the preliminary test, each dosage being 0.8 larger than the previous one
(§3) During the experiment, each sample was added a small amount of Tween-80 to facilitate dissolution after the sample was weighed, and then 0.5% CMC-Na solution was gradually added to achieve the desired concentration. The experimental volume was 0.5 ml/20 g mouse.
(§4) Single injection via intraperitoneal (i.p.) to different groups mice.
(§5) Kunming mice were divided into different groups randomly according to their sex. The medicament was intraperitoneally administered to each group of mice according to the dosage setting. After the administration of the medicaments, mice were observed continuously for the first 2 h for any gross behavioral changes and deaths. Dead animals were dissected and examined for any possible organ damage. […] Conditions of animals died within two week were recorded. After two weeks, all survived animals were sacrificed and checked macroscopically for possible damage to the heart, liver, kidneys and so on. Viscera that had substantive pathological changes were pathologically examined.

[2] = test system: Kunming mice; conditions: for Death rate: single i.p.
Description: as §2, §3, §4, §5

[3] = test system: NIH3T3; assay: In vitro cytotoxicity, IC50 by MTT method, NIH3T3; format: cell-based; conditions: Mus musculus; NIH3T3 cell strain; read-out: IC50 NIH3T3
Outline: (§1)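 Cells in RPMI1640 with 10% FBS at 37° C, 5% CO2 were seeded at 10^5/ml and exposed to a compound concentration gradient for 48 h, at least three replicates, solvent controls.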

[4] = test system: Hela; assay: In vitro cytotoxicity, IC50 by MTT method, Hela; format: cell-based; conditions: Homo sapiens; Hela cell strain; read-out: IC50 Hela
Outline: as §1

[5] = test system: HepG2; assay: In vitro cytotoxicity, IC50 by MTT method, HepG2; format: cell-based, human; conditions: Homo sapiens; HepG2 cell strain; read-out: IC50 HepG2
Outline: as §1

[6] = test system: Lewis lung cancer; conditions: Lewis lung cancer; for Body weight of the animals, end, First time / Body weight of the animals, end, Second time: ip × 10qd;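 for all read-outs here: mice implanted subcutaneously in the axilla with Lewis lung tumor cells, treated starting the following day, killed roughly three weeks after implantation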
Description: (§6) There was one group of 8 to 10 mice C57BL/6 and Kunming mice for the anti-tumor tests and two groups of mice for negative control.
(§7) (3) Sources of tumors: Lewis lung cancer cells and S180 sarcoma in mice, which were sub-cultured and maintained by Pharmacological Center of Shanghai Pharmaceutical Industrial Research Institute.
(§8) All samples were weighed and added a small amount of Tween-80 to facilitate dissolution during the experiment, and then 0.5% CMC-Na solution was gradually added to achieve the desired concentration. The volume for experiment was 0.5 ml/20 g mouse.
(§9) The medicaments were intraperitoneally administered once a day continuously for 10 days.
(§10) For the negative control group, a vehicle of the same volume was intraperitoneally administered once a day continuously for 10 days. For the positive control group, CTX was administered in the dosage of 30 mg/kg once a day continuously for 7 days.
(§11) In vivo anti-tumor subcutaneous vaccination in the axilla was employed. Wildly grown tumor source was taken under sterile conditions to form a cell suspension of about 1×10^7 ml by homogenization method. For a corresponding mouse host, the suspension was injected in the axilla in an amount of 0.2 ml/mouse. The next day, the medicaments were administered according to the design of the tests. About three weeks later, all the groups of animals were executed. The tumors were taken from the animals and weighed. The inhibition rate of tumors was calculated according to the following formula:
(§12) T: average tumor weight of treated group; C: average tumor weight of negative control group.

[7] = test system: Bel-7402; assay: In vitro cytotoxicity, IC50 by MTT method, Bel-7402; format: cell-based; conditions: Homo sapiens, Bel-7402; Bel7402 cell strain; read-out: IC50 Bel7402
Outline: as §1

[8] = test system: Lovo; assay: In vitro cytotoxicity, IC50 by MTT method, Lovo; format: cell-based; conditions: Homo sapiens; Lovo cell strain; read-out: IC50 Lovo
Outline: as §1

[9] = test system: BGC-823; assay: In vitro cytotoxicity, IC50 by MTT method, BGC-823; format: cell-based; conditions: Homo sapiens, BGC-823; BGC823 cell strain; read-out: IC50 BGC823
Outline: as §1

[10] = test system: PLA-801; assay: In vitro cytotoxicity, IC50 by MTT method, PLA-801; format: cell-based; conditions: PLA-801 cell strain; read-out: IC50 PLA-801
Outline: as §1

[11] = test system: CT-DNA; assay: DNA thermal denaturation, determination of ΔTm; format: binding; conditions: 20 uM compound, Tm of CT-DNA alone 61° C.
Description: Experiments were carried out in PE buffer (1 mM Na2HPO4, 0.1 mM EDTA, pH 7.6) in a thermostatically controlled cell hold, and the quartz cuvette (1 cm path length) was heated by circulating water at a heating rate of 0.5° C./min from 25 to 95° C. Amsacrine and Doxorubicin Hydrochloride were used as standards. In all cases, the concentration of CT-DNA was 15 ug/ml. The ‘melting’ temperature Tm was taken as the mid-point of the hyperchromic transition.
ΔTm=Tm^drug-DNA complex−Tm^DNA alone
The ΔTm of each compound was calculated, Experiments were repeated three times, and an average value was calculated.

[12] = test system: S180 sarcoma; conditions: S180 sarcoma; for Body weight of the animals, beginning, First time / Body weight of the animals, end, First time / Inhibition rate, First time / Weight of the tumor X ± SD, First time / Body weight of the animals, beginning, Second time / Body weight of the animals, end, Second time / Inhibition rate, Second time: ip × 10qd
Description: as §6, §7, §8, §9, §10, §11, §12
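Throughout, for Death rate: acute toxicity in Kunming mice grouped by sex, one intraperitoneal dose at five graded levels in Tween-80 plus 0.5% CMC-Na, deaths monitored over two weeks.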
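Throughout, for LD50: acute toxicity in Kunming mice grouped by sex, one intraperitoneal dose at five graded levels in Tween-80 plus 0.5% CMC-Na, deaths monitored over two weeks.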

SMILES: CCOC(=O)c1cc2c3ccccc3n(Cc3ccccc3)c2cn1 [Compound 33, ethyl 9-benzyl-β-carboline-3-carboxylate]
- LD50 at 2 weeks [1]: 240 mg/kg
- Death rate ([2]; 50% male 50% female mice, 240 mg/kg): 50
- Death rate ([2]; 50% male 50% female mice, 300 mg/kg): 90
- Death rate ([2]; female mice, 240 mg/kg): 60
- Death rate ([2]; female mice, 300 mg/kg): 100
- Death rate ([2]; male mice, 240 mg/kg): 40
- Death rate ([2]; male mice, 300 mg/kg): 80
- LD50 ([2]; mouse, in vivo, ip): 211 to 274 mg/kg
- IC50 [3]: 50 µM
- IC50 [4]: 10 µM
- IC50 [5]: 80 µM
- Body weight of the animals, end, First time ([6]; Dosage 50 (mg/ml)): 25.4 g
- Body weight of the animals, end, Second time ([6]; Dosage 50 (mg/ml)): 24.9 g
- Body weight of the animals, beginning, First time ([6]; Dosage 50, ip × 10qd): 20.3 g
- Inhibition rate, First time ([6]; Dosage 50, ip × 10qd): 34.16%
- Weight of the tumor X ± SD, First time ([6]; Dosage 50, ip × 10qd): 1.60 ± 0.09 g
- Body weight of the animals, beginning, Second time ([6]; Dosage 50, ip × 10qd): 18.9 g
- Inhibition rate, Second time ([6]; Dosage 50, ip × 10qd): 31.06%
- Weight of the tumor X ± SD, Second time ([6]; Dosage 50, ip × 10qd): 2.02 ± 0.18 g
- Body weight of the animals, end, First time ([6]; Dosage 100 (mg/ml)): 24.7 g
- Body weight of the animals, end, Second time ([6]; Dosage 100 (mg/ml)): 24.5 g
- Body weight of the animals, beginning, First time ([6]; Dosage 100, ip × 10qd): 19.9 g
- Inhibition rate, First time ([6]; Dosage 100, ip × 10qd): 42.80%
- Weight of the tumor X ± SD, First time ([6]; Dosage 100, ip × 10qd): 1.39 ± 0.15 g
- Body weight of the animals, beginning, Second time ([6]; Dosage 100, ip × 10qd): 19.0 g
- Inhibition rate, Second time ([6]; Dosage 100, ip × 10qd): 43.34%
- Weight of the tumor X ± SD, Second time ([6]; Dosage 100, ip × 10qd): 1.66 ± 0.12 g
- Inhibition rate (%) Lewis cancer ([6]; comparison table 43, in vivo): 43.3%
- IC50 [7]: 340 µM
- IC50 [8]: 120 µM
- IC50 [9]: 150 µM
- IC50 [10]: 170 µM
- ΔTm ([11]; CT-DNA 15 ug/ml, PE buffer pH 7.6): −1.2 °C
- ΔTm ([11]; CT-DNA thermal denaturation): −1.2 °C
- Body weight of the animals, beginning, First time ([12]; Dosage 50 (mg/ml)): 19.4 g
- Body weight of the animals, end, First time ([12]; Dosage 50 (mg/ml)): 24.4 g
- Inhibition rate, First time ([12]; Dosage 50 (mg/ml)): 33.33%
- Weight of the tumor X ± SD, First time ([12]; Dosage 50 (mg/ml)): 1.78 ± 0.17 g
- Body weight of the animals, beginning, Second time ([12]; Dosage 50 (mg/ml)): 18.7 g
- Body weight of the animals, end, Second time ([12]; Dosage 50 (mg/ml)): 25.6 g
- Inhibition rate, Second time ([12]; Dosage 50 (mg/ml)): 32.22%
- Weight of the tumor X ± SD, Second time ([12]; Dosage 50, ip × 10qd): 1.83 ± 0.19 g
- Body weight of the animals, beginning, First time ([12]; Dosage 100 (mg/ml)): 19.4 g
- Body weight of the animals, end, First time ([12]; Dosage 100 (mg/ml)): 24.6 g
- Inhibition rate, First time ([12]; Dosage 100 (mg/ml)): 42.70%
- Weight of the tumor X ± SD, First time ([12]; Dosage 100 (mg/ml)): 1.53 ± 0.15 g
- Body weight of the animals, beginning, Second time ([12]; Dosage 100 (mg/ml)): 18.6 g
- Body weight of the animals, end, Second time ([12]; Dosage 100 (mg/ml)): 25.1 g
- Inhibition rate, Second time ([12]; Dosage 100 (mg/ml)): 40.00%
- Weight of the tumor X ± SD, Second time ([12]; Dosage 100, ip × 10qd): 1.62 ± 0.30 g
- Inhibition rate (%) S180 sarcomata ([12]; comparison table 43, in vivo): 42.11%

From patent US20090227619A1, “Harmine derivatives, intermediates used in their preparations, preparation processes and use therefo” (priority 2003, published 2009)
